The subject of data set [1] is Plasmodium falciparum 3D7. As to the kind of experiment: In vitro growth assay and flow cytometry analysis (72 h), 3D7. Type of data set: cell-based. The following applies: for IC50: Plasmodium falciparum. The method, then: (§1) Red blood cells infected with P. falciparum 3D7 or PfeIK1^‐ (iRBC) with 0.3 % initial parasitemia and 1% hematocrit were incubated with different concentrations of compounds Tripbenz (4), Triptosil (5), Triptiofen (6), Tripfuroila (7), and Tripcicloexil (8) ranging from 0.107 to 110 µM, and compounds Melatobenz (9), Melatotosil (10), Melatofuroila (11), and Melatocicloexil (12) ranging from 0.1 to 100 µM for 72 hours at 37°C under mixture of gases. The control group was treated with solvent dimethyl sulfoxide (DMSO) (v/v), with the highest concentration of solvent 0.14%. Chloroquine was used as positive control with concentrations ranging from 0.244 to 250 nM. Parasitemia was determined from dot plots (side scatter versus fluorescence) of at least 10^3 cells acquired on a FACSCalibur flow cytometer using […] software (Becton Dickinson) or an Accuri C6 flow cytometer (Becton Dickinson). Initial gating was carried out with unstained, uninfected erythrocytes to account for erythrocyte auto fluorescence. The concentration responsible for 50% inhibition (IC50) was determined from the compound concentration‐response curve determined with the software GraphPad Prism 6.
(§2) For assays with antimalarials, iRBC were incubated with different concentrations of Atovaquone ranging from 0.02 to 24 nM, or Artemisinin 0.15‐160 nM.
(§3) After 72 hours, iRBC were stained with nucleic acid marker SYBR Green I (1X) (Invitrogen) and mitochondria marker based on membrane potential MitoTracker Deep Red (50 nM) (Invitrogen), and incubated for 20 minutes at 37°C. Final parasitemia was obtained by flow cytometer using a BD Accuri C6 Flow Cytometer, collecting 10^4 cells. Parasitemia was determined by dot plots using FlowJo 5 software.
(§4) At least three independent experiments were performed in triplicate to calculate the IC50 values for each drug.

Data set [2] has as its system P. falciparum PfeIK1^‐. As to the kind of experiment: In vitro growth assay and flow cytometry analysis (72 h), PfeIK1 knockout. It counts as cell-based, Plasmodium falciparum. The following applies: for IC50: Plasmodium falciparum. The method, then:
as §1, §2, §3, §4
In general terms: Flow cytometry measures light scatter and fluorescence of single cells or particles in a stream.

In data set [3] the test system is Plasmodium falciparum 3D7. As to the kind of experiment: Effect of indole compounds in parasitemia (48 h), 3D7. Type of data set: cell-based. The following applies: 3D7, 500 nM compound; for activity at 0.5 µM: Plasmodium falciparum, read-out: final parasitemia normalized to control. The method, then: (§5) Red blood cells infected (iRBC) with 3D7 or PfeIK1^‐ (iRBC) with 1% initial parasitemia and 2% hematocrit were incubated with 500 nM of the synthetic indole compounds or 100 nM Melatonin for 48 hours at 37°C under mixture of gases. ^12 The control group received 0.0013% of solvent dimethyl sulfoxide (DMSO).
(§6) After 48 hours, iRBC were double‐stained ^34 with nucleic acid marker SYBR Green I (1X) and mitochondria marker, based on membrane potential, MitoTracker Deep Red (50 nM), and incubated for 20 minutes at 37°C.
(§7) Final parasitemia was obtained by flow cytometer using an Accuri C6 flow cytometer (Becton Dickinson), collecting 10^4 cells. Parasitemia was determined by dot plots using FlowJo 5 software.

Data set [4] concerns P. falciparum PfeIK1^‐. As to the kind of experiment: Effect of indole compounds in parasitemia (48 h), PfeIK1 knockout. Type of data set: cell-based. To be noted: Plasmodium falciparum, read-out: final parasitemia normalized to control. The method, then: as §5, §6, §7
Data set [5] relates to P. falciparum PfeIK1^‐. As to the kind of experiment: Effect of compounds on melatonin action on parasitemia, PfeIK1 knockout. It counts as cell-based, Plasmodium falciparum. To be noted: 500 nM compound + 100 nM melatonin, 48 h, normalized to control. The method, then:
(§8) To evaluate the effect of the compounds on melatonin action on parasitemia, iRBC were incubated with 500 nM of compounds for 10 minutes and then along with 100 nM of melatonin for 48 hours at 37°C under mixture of gases.
as §6, §7

The subject of data set [6] is Plasmodium falciparum 3D7. As to the kind of experiment: Effect of compounds on melatonin action on parasitemia, 3D7. It counts as cell-based. The following applies: 3D7, 500 nM compound + 100 nM melatonin, 48 h. The method, then:
as §8, §6, §7

Data set [7] has as its system P. falciparum GCaMP3 parasites. As to the kind of experiment: Calcium assay in transgenic PfGCaMP3 parasites. The following applies: 500 nM. It counts as cell-based, Plasmodium falciparum. The method, then: Calcium assays were performed using the transgenic P. falciparum GCaMP3 parasites. ^37 PfGCaMP3 cultures were synchronized at least three times with 5% sorbitol before starting the experiments, and parasitemia was maintained between 5% and 8%. PfGCaMP3 parasites were cultivated with 10 nM/mL of WR for selection. Parasites were isolated with saponin (0.016%) and collected by centrifugation 8000 rpm, subsequently washed twice with buffer M, and allowed to settle in a four‐well plate for microscope coated with poly‐L‐lysine for 30 minutes at 37°C with 5% CO2 in buffer M ([…], 5.4 mM KCl, 0.8 mM MgSO4, 5.5 mMD‐glucose, 50 mM MOPS, and 2 mM CaCl2, pH 7.2). The compounds used for measuring calcium assays were as follows: Melatotosil and Triptiofen solubilized in DMSO.
Images were captured using a Nikon Eclipse Ti2 inverted microscope with FITC filter. Images were collected every 10 seconds for 5 minutes, with NIS‐Elements Ar 5.11.01 from Nikon using 60× lens. All experiments were performed at least three independent times in duplicates.

Data set [8] deals with Human Embryonic Kidney cells (HEK293). As to the kind of experiment: Cytotoxicity Assay in HEK293 cells (MTT). It counts as cell-based. The following applies: 0.107 to 110 µM, 72 h. The method, then: To evaluate toxicity of the new indole compounds in mammalian cells, Human Embryonic Kidney cells (HEK293) were maintained in 75 cm^2 culture flasks (Greiner Bio‐One) at 37°C, 5%CO2 in […] (DMEM), supplemented with 10% fetal bovine serum, NaHCO33.7 g/L (Sigma), 100 U/mL penicillin/, and 100 μg/mL streptomycin in monolayers.
Cells were plated in flat‐bottom 96‐well plates in a density of 10^4 cells per well and incubated for 24 hours in 150 µL media at 37°C, 5%CO2. Cells were then treated with different concentrations of each compound, ranging from 0.107 to 110 µM in 200 µL DMEM for 72 hours at 37°C and 5%CO2. Cells treated with DMSO (v/v) with the highest concentration of solvent 0.14% were used as control.
After incubation, 40 µL of MTT reagent (solution 5 mg/mL in PBS) was added to each well, and cells were incubated for further 3 hours at 37°C and 5% CO2. The media were removed and 100 µL of DMSO was added in each well. Plates were agitated in a shaker for 10 minutes to dissolve precipitates. Absorbance was read at 570 nm in a FlexStation 3 (Molecular Devices). Six experiments were performed independently in triplicates.

Setting [9] is: 72 h, parasitemia by flow cytometry, wild-type 3D7, read-out: IC50 3D7 strain (antimalarials).
The mark [10] stands for this setting: read-out: IC50 PfelK1^‐ strain (antimalarials).
Setting [11] is: 3D7, 72 h, read-out: IC50 (µM) 3D7 strain.
The mark [12] stands for this setting: read-out: IC50 (µM) PfelK1^‐ strain.

“Also recorded” adds a separate entry of the source. Where two headings read alike, the source gives them in different places.

Take `C[C@@H]1CC[C@H]2[C@@H](C)C(=O)O[C@@H]3O[C@@]4(C)CC[C@@H]1[C@]32OO4` [Artemisinin, reference compound]: the values for the IC50 in data set [1] (setting [9]) and in data set [2] (setting [10]) were 0.0137 µM and 0.0188 µM, respectively.

For `O=C1C(O)=C([C@H]2CC[C@H](c3ccc(Cl)cc3)CC2)C(=O)c2ccccc21` [Atovaquone, reference compound], the figures for the IC50 in data set [1] (setting [9]) and in data set [2] (setting [10]) were 0.0004 µM and 0.00047 µM, respectively.

`CCN(CC)CCCC(C)Nc1ccnc2cc(Cl)ccc12` (centres unmarked) [Chloroquine, reference compound]: the IC50 (as a rule, the concentration that inhibits the measured activity by half) in data set [1] (3D7, 72 h, read-out: IC50 3D7 strain (antimalarials)) was found to be 0.0099 µM.

For `COc1ccc2[nH]cc(CCNS(=O)(=O)c3ccccc3)c2c1` [Melatobenz (9), N‐(2‐(5‐methoxy‐1H‐indol‐3‐yl)ethyl)benzenesulfonamide], the IC50 was 38.5 ± 1.57 µM in data set [1] (setting [11]) and 57.8 µM in data set [2] (setting [12]). Also, the activity at 0.5 µM in data set [3] turned out to be 102%; in data set [4], 100%. In addition, the “final parasitemia, compound along with melatonin” value (“final parasitemia, compound along” for short) in data set [5] turned out to be 105.0 ± 1.97%.

Consider `COc1ccc2[nH]cc(CCNC(=O)C3CCCCC3)c2c1` [Melatocicloexil (12), N‐(2‐(5‐methoxy‐1H‐indol‐3‐yl)ethyl)cyclohexanecarboxamide], for which the IC50 amounted to 35.2 ± 4.14 µM in data set [1] (setting [11]) and 47.6 ± 6.43 µM in data set [2] (setting [12]). The activity at 0.5 µM was determined as 104% in data set [3] and 98.3% in data set [4]. Also, the “final parasitemia, compound along” value in data set [5] was 107.0 ± 1.37%.

On to `COc1ccc2[nH]cc(CCNC(=O)c3ccco3)c2c1` [Melatofuroila (11), N‐(2‐(5‐methoxy‐1H‐indol‐3‐yl)ethyl)furan‐2‐carboxamide], for which the figures for the IC50 in data set [1] (setting [11]) and in data set [2] (setting [12]) were 30.9 ± 4.92 µM and 31.9 ± 0.46 µM, respectively. Moreover, the activity at 0.5 µM in data set [3] is 102%; in data set [4], 97.1%. Further, the “final parasitemia, compound along” value in data set [5] came out at 99.78 ± 2.03%.

Regarding `COc1ccc2[nH]cc(CCNS(=O)(=O)c3ccc(C)cc3)c2c1` [Melatotosil (10), N‐(2‐(5‐methoxy‐1H‐indol‐3‐yl)ethyl)‐4‐methylbenzenesulfonamide], the “IC50 (µM) 3D7 strain” value in data set [1] (72 h, parasitemia by flow cytometry, wild-type 3D7) is listed as “without antimalarial activity; also recorded: No activity”. The “IC50 (µM) PfelK1^‐ strain” value in data set [2] (parasitemia by flow cytometry, PfeIK1 knockout) is listed as “No activity”. The “increase in parasitemia compared to control group” value in data set [3] is listed as 10%. In addition, in data set [4], the activity at 0.5 µM is 97.5%. Moreover, in data set [6], the “ability to abolish the increase in parasitemia triggered by melatonin” value (“ability to abolish the increase” below) was “able to abolish”; the “decrease in parasitemia compared to treatment with the hormone only” value (shortened to “decrease in parasitemia”) stood at 11.69%; the “parasitemia normalized to control, compound along with melatonin” value (“parasitemia normalized to control” for short) is 98.07%. Further, the “final parasitemia, compound along” value in data set [5] is on record as 106.2 ± 1.55%. Further, the cytosolic calcium rise result in data set [7] (PfGCaMP3) is “elicits a calcium rise”. Also, the “Fmax/F0 (maximum fluorescence normalized to baseline)” value in data set [7] (PfGCaMP3, 120 cells) was found to be 1.21 ± 0.01.

Turning to `O=S(=O)(NCCc1c[nH]c2ccccc12)c1ccccc1` [Tripbenz (4), N‐(2‐(1H‐indol‐3‐yl) ethyl)benzenesulfonamide], the IC50 in data set [1] (setting [11]) was 18.7 ± 2.5 µM; in data set [2] (setting [12]), 36.8 ± 3.44 µM. Further, the activity at 0.5 µM stood at 100% in data set [3] and 95.6% in data set [4]. Moreover, in data set [8], the “toxicity in HEK293 cells” value was “no toxicity”.

As for `O=C(NCCc1c[nH]c2ccccc12)C1CCCCC1` [Tripcicloexil (8), N‐(2‐(1H‐indol‐3‐yl)ethyl)cyclohexanecarboxamide], the IC50 in data set [1] (setting [11]) was found to be 28 ± 4.07 µM; in data set [2] (setting [12]), 37.6 ± 2.72 µM. Besides, the activity at 0.5 µM is 102% in data set [3] and 101% in data set [4]. Moreover, the “final parasitemia, compound along” value in data set [5] came out at 105.5 ± 0.91%. Further, the “toxicity in HEK293 cells” value in data set [8] is “no toxicity”.

Turning to `O=C(NCCc1c[nH]c2ccccc12)c1ccco1` [Tripfuroila (7), N‐(2‐(1H‐indol‐3‐yl)ethyl)furan‐2‐carboxamide], the IC50 in data set [1] (setting [11]) is 17.1 ± 2.6 µM. The IC50 in data set [2] (setting [12]) was 23.6 ± 2.2 µM. Moreover, the activity at 0.5 µM in data set [3] is 101%. Further, the activity at 0.5 µM in data set [4] was found to be 98.5%. Moreover, in data set [6], the “ability to abolish the increase” value is reported as “able to abolish”; the “decrease in parasitemia” value came to 11.25%; the “parasitemia normalized to control” value was 98.52%. For the same compound, the “final parasitemia, compound along” value in data set [5] came to 102.3 ± 1.53%. For the same compound, the “toxicity in HEK293 cells” value in data set [8] is listed as “no toxicity”.

In the case of `Cc1ccc(S(=O)(=O)NCCc2c[nH]c3ccccc23)cc1` [Triptosil (5), N‐(2‐(1H‐indol‐3‐yl)ethyl)‐4‐methylbenzenesulfonamide], the IC50 in data set [1] (setting [11]) was 19.8 ± 5.33 µM. In addition, in data set [2] (setting [12]), the IC50 came to 30.6 ± 1.55 µM. For the same compound, in data set [3], the activity at 0.5 µM was found to be 100%. In addition, in data set [4], the activity at 0.5 µM turned out to be 99.3 ± 2.18%. In data set [6], the “ability to abolish the increase” value is “able to abolish”; the “decrease in parasitemia” value is 9.7%; the “parasitemia normalized to control” value is listed as 100%. The “final parasitemia, compound along” value in data set [5] was 105.4 ± 2.05%. Besides, the “toxicity in HEK293 cells” value in data set [8] is given as “no toxicity”.

The values are drawn from article PMC7539967, “The Plasmodium falciparum eIK1 kinase (PfeIK1) is central for melatonin synchronization in the human malaria parasite. Melatotosil blocks melatonin action on parasite cell cycle” (Journal of Pineal Research, 2020).
